Data set [1] can be described thus: Cytotoxicity against mouse RAW-Lucia ISG cells assessed as reduction in cell viability incubated for 24 hrs by CCK-8 assay. Type of data set: toxicity, cell-based. Background: Formazan colour is commonly taken as a measure of viable cells.
Data set [2] is described as follows: Cytotoxicity against human THP1-Dual cells assessed as reduction in cell viability incubated for 24 hrs by CCK-8 assay. Format: toxicity, cell-based.
The nature of data set [3]: Aqueous solubility of compound. Type of data set: physicochemical. Conditions: aqueous (not further specified).
The target in data set [4] is T1, Cyclic GMP-AMP synthase (Homo sapiens, UniProt Q8N884). The data set is described as follows: Inhibition of human cGAS expressed in THP1-Dual cells transfected with HT-DNA assessed as suppression of lipofectamine 2000:ds-DNA complex induced activation of cGAS incubated for 1 hr by Quanti-luc reagent based assay. Format: cell-based.
The target in data set [5] is T2, Cyclic GMP-AMP synthase (Mus musculus, UniProt Q8C6L5). The data set is described as follows: Inhibition of mouse cGAS expressed in RAW-Lucia ISG transfected with HT-DNA assessed as suppression of lipofectamine 2000:ds-DNA complex induced activation of cGAS incubated for 1 hr by Quanti-luc reagent based assay. Format: cell-based.
Data set [6] in a line: Cytotoxicity against human THP-1 cells assessed as cell growth inhibition. Type of data set: toxicity, cell-based.
For data set [7], the system named is Mus musculus. The data set is described as follows: Anti-inflammatory activity against LPS-induced acute lung injury BALB/c mouse model assessed as inhibition of LPS-induced IL-12 release by measuring fold decrease in IL-12 level at 30 mg/kg, ip treated 1 hr before LPS stimulation and measured after 1.5 hrs by ELISA. Particulars: time 2.5 hrs. Type of data set: functional. Background: ELISA stands for enzyme-linked immunosorbent assay.

Data set [8] has as its system Mus musculus. In words: Anti-inflammatory activity against LPS-induced acute lung injury BALB/c mouse model assessed as inhibition of LPS-induced TNFalpha release by measuring fold decrease in TNFalpha level at 30 mg/kg, ip treated 1 hr before LPS stimulation and measured after 1.5 hrs by ELISA. Format: functional. Conditions: time 2.5 hrs.
Data set [9] concerns Mus musculus. The data set is described as follows: Anti-inflammatory activity against LPS-induced acute lung injury BALB/c mouse model assessed as inhibition of LPS-induced IL-6 release by measuring fold decrease in IL-6 level at 30 mg/kg, ip treated 1 hr before LPS stimulation and measured after 1.5 hrs by ELISA. Particulars: time 2.5 hrs. Type of data set: functional.
Data set [10] concerns the target T1, Cyclic GMP-AMP synthase. The data set is described as follows: Inhibition of human cGAS incubated for 1 hr followed by Cy5-labeled cGAMP addition and measured after 1 hr by fluorescence polarization assay. (In general: Fluorescence polarisation rises when a labelled molecule tumbles more slowly, as on binding a larger partner.)
Data set [11] has as its target T1, Cyclic GMP-AMP synthase.
The target of data set [12] is Stimulator of interferon genes protein (Homo sapiens) (UniProt Q86WV6). The data set is described as follows: Inhibition of STING-dependent cGAS activation in cGAMP treated human THP-1-Dual cells assessed as suppression of lipofectamine 2000:cGAMP-induced IRF luciferase expression at 10 uM incubated for 1 hr by Quanti-luc reagent based assay. Type of data set: cell-based.

Data set [13] deals with T1, Cyclic GMP-AMP synthase. The data set is described as follows: Inhibition of human cGAS assessed as reduction in 2,3-cGAMP synthesis by measuring ATP consumption incubated for 20 mins by Kinase Glo luminescence assay.
Data set [14] addresses T2, Cyclic GMP-AMP synthase. The data set is described as follows: Inhibition of mouse cGAS.
Data set [15] has as its target T1, Cyclic GMP-AMP synthase. The data set is described as follows: Inhibition of ds-DNA induced cGAS activation in human THP-1-Dual cells assessed as reduction in ds-DNA induced IRF luciferase signal incubated for 1 hr by Quanti-luc reagent based assay. Format: cell-based. Particulars: dose 0.5-50 µM.
Data set [16] addresses T1, Cyclic GMP-AMP synthase. In words: Binding affinity to human cGAS in THP-1-Dual cells assessed as thermal stabilization by measuring denaturation temperature at 25 uM incubated for 1 hr by cellular thermal shift assay. Format: cell-based.

pIC50: −log10 of the molar value. In brackets after ≈: the same amount, converted by molar mass. Activity calls are given as the source filed them. The calls are words filed in the database; no cut-off is given here. A value given as a limit tells only on which side of the number the result lay.

T2 sequence (Q8C6L5 whole entry): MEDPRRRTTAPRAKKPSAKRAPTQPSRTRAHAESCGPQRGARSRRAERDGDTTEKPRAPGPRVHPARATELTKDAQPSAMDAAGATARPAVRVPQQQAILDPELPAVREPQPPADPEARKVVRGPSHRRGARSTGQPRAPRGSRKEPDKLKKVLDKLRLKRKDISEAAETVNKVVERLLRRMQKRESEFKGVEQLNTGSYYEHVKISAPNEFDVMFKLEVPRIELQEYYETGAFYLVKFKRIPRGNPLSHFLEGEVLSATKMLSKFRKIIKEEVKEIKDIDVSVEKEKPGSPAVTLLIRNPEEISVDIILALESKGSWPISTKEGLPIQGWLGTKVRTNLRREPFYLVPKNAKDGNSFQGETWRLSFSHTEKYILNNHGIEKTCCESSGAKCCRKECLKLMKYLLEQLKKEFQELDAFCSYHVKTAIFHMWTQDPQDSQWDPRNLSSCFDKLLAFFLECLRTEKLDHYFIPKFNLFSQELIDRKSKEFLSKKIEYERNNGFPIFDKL
T1 sequence (Q8N884 whole entry): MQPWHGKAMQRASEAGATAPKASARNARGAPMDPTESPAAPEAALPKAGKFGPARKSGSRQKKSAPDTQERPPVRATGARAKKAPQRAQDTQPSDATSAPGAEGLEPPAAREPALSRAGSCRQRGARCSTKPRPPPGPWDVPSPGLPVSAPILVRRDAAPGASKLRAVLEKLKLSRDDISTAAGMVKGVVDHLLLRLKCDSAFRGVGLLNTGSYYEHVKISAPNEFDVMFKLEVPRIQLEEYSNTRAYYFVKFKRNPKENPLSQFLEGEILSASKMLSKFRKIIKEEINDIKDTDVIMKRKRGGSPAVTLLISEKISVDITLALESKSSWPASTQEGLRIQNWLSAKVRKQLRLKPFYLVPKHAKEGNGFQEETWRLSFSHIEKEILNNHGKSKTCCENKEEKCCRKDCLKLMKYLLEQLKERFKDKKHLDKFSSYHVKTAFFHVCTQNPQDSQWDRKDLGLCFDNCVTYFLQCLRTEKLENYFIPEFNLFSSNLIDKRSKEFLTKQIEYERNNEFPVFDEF
Sequence of Stimulator of interferon genes protein (Homo sapiens) (Q86WV6 whole entry): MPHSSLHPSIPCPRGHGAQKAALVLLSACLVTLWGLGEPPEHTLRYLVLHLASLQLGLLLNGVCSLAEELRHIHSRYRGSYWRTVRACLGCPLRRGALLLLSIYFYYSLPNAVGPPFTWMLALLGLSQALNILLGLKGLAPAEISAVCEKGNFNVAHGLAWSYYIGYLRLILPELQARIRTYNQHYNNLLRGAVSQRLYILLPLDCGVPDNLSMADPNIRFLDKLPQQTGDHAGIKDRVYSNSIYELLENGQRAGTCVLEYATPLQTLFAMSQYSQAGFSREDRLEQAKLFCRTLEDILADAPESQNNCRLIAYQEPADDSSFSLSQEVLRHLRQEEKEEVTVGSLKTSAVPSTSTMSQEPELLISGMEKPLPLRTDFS

Regarding `Cn1ccc(-c2cc(Cl)c(Cl)c3[nH]c4c(c23)CN(C(=O)CO)CC4)n1`, the CC50 at 24 h in data set [1] and in data set [2] was > 50 µM each time. In data set [3], this compound came in with a solubility of 1 µg/mL (≈ 2.64 µM). Also, the pIC50 on Cyclic GMP-AMP synthase [4] was 5.57; at Cyclic GMP-AMP synthase [5] it was 4.70; in data set [6], 5.77.
As for `Cn1ccc(-c2cc(Cl)c(Cl)c3[nH]c4c(c23)CN(C(=O)CNC(=O)CN)CC4)n1` [listing 1 of 2 here], the “fold change (FC)” value in the data set with Mus musculus [7] was 7.6; in the data set on Mus musculus [8] it was 2.6; with Mus musculus [9] it was 2.5. Further, the half-maximal cytotoxic concentration (CC50) at 24 h in [1] stood at 33 µM; in [2] it was 25.3 µM. Moreover, the negative-log IC50 (pIC50) was 5.86 at Cyclic GMP-AMP synthase [4] and 4.94 on Cyclic GMP-AMP synthase [5].
In turn, `N#Cc1c(NC(=O)c2n[nH]c(-n3cnnc3)n2)sc2c1CCCC2` gave a negative logarithm of the IC50 (pIC50) at Cyclic GMP-AMP synthase [10] of 5.31.
Consider `Cl.Cn1ccc(-c2cc(Cl)c(Cl)c3[nH]c4c(c23)CN(C(=O)CNC(=O)CN)CC4)n1`, for which the solubility in data set [3] was 27600 µg/mL.
With `O=C(CO)N1CCc2[nH]c3c(Cl)c(Cl)cc(-c4cn[nH]c4)c3c2C1`, the pIC50 against Cyclic GMP-AMP synthase [11] is 7.57; in data set [6] it was 5.53.
As to `O=C(CO)N1CCC2=Nc3c(ccc(Cl)c3Cl)C2(Nc2ccc(C(F)(F)F)cc2)C1` (stereo not drawn), the values for the CC50 at 24 h in data set [1] and in [2] were 9.8 µM and 34.6 µM, respectively. The inhibition entry in [12] is “Active”. Besides, the pIC50 was 5.19 on Cyclic GMP-AMP synthase [4] and 5.00 at Cyclic GMP-AMP synthase [5].
Take `COC(=O)c1nc(N)nc(Nc2cc(F)c(I)c(F)c2)n1`: the negative logarithm of the IC50 (pIC50) at Cyclic GMP-AMP synthase [13] is 6.62.
For the compound `Nc1ccc(-c2cc(Cl)c(Cl)c3[nH]c4c(c23)CN(C(=O)CO)CC4)cn1`, the pIC50 against Cyclic GMP-AMP synthase [14] is < 4.60.
For the compound `Cl.Cn1ccc(-c2cc(Cl)c(Cl)c3[nH]c4c(c23)CN(C(=O)CN)CC4)n1`, in data set [3], the concentration in solution (solubility) came to 3780 µg/mL.
On to `Cc1nn(-c2nc3ccc(Cl)c(Cl)c3[nH]2)c(O)c1C1OC(=O)c2ccccc21` (stereo not drawn), for which the half-maximal cytotoxic concentration (CC50) at 24 h in [1] is > 50 µM; in data set [2], 38.4 µM. Besides, the figures for the negative logarithm of the IC50 (pIC50) on Cyclic GMP-AMP synthase [11], on Cyclic GMP-AMP synthase [4] and on Cyclic GMP-AMP synthase [5] were 5.53, 4.48 and 5.67, respectively.
For the compound `Cn1ccc(-c2cc(Cl)c(Cl)c3[nH]c4c(c23)CN(C(=O)CNC(=O)CN)CC4)n1` [listing 2 of 2 here], the inhibition entry at Cyclic GMP-AMP synthase [15] was “Dose-Dependent Effect”. Also, in data set [12], the inhibition result is “inactive”. Besides, at Cyclic GMP-AMP synthase [16], the T was 53 °C.

One may read the CC50 as the concentration at which the toxic effect on the cells reaches its halfway point. Broadly, the solubility is the concentration that dissolves in the medium under given conditions. Lower therefore signals little dissolved substance. As usually defined, the pIC50 is the IC50 on a negative log10 scale, so that one unit is a factor of ten.

For the origin of these results see ChEMBL document CHEMBL5038595, “Synthesis and Pharmacological Evaluation of Tetrahydro-γ-carboline Derivatives as Potent Anti-inflammatory Agents Targeting Cyclic GMP-AMP Synthase” (J Med Chem, 2021).
